Measured values: ChEMBL document CHEMBL1135547, “Anticholinesterase activity of compounds related to geneserine tautomers. N-Oxides and 1,2-oxazines” (J Med Chem, 2002)

Experiments:
Cholinesterase = Cholinesterase (Homo sapiens, UniProt P06276)
Description: Ex vivo inhibition of human plasma Butyrylcholinesterase.

Acetylcholinesterase = Acetylcholinesterase (Homo sapiens, UniProt P22303)
Acetylcholinesterase, sequence (P22303 whole entry): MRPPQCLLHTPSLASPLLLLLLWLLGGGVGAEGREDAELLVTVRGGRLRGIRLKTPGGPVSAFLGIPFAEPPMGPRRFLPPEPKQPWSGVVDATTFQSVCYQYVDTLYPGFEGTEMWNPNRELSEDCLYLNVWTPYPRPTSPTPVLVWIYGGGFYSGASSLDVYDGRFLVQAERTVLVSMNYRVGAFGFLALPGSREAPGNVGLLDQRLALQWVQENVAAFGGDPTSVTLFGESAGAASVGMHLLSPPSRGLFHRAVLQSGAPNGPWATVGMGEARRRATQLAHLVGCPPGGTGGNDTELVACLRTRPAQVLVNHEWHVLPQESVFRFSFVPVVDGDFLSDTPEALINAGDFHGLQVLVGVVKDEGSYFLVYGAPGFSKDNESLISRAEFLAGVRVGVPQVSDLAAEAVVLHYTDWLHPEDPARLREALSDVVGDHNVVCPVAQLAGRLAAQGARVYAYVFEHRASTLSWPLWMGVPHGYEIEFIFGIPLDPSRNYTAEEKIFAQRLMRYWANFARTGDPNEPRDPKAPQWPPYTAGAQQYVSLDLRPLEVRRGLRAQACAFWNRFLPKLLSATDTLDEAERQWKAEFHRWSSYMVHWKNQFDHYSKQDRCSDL
Description: Ex vivo inhibition of human erythrocyte Acetylcholinesterase.

Cholinesterase, sequence (P06276 whole entry): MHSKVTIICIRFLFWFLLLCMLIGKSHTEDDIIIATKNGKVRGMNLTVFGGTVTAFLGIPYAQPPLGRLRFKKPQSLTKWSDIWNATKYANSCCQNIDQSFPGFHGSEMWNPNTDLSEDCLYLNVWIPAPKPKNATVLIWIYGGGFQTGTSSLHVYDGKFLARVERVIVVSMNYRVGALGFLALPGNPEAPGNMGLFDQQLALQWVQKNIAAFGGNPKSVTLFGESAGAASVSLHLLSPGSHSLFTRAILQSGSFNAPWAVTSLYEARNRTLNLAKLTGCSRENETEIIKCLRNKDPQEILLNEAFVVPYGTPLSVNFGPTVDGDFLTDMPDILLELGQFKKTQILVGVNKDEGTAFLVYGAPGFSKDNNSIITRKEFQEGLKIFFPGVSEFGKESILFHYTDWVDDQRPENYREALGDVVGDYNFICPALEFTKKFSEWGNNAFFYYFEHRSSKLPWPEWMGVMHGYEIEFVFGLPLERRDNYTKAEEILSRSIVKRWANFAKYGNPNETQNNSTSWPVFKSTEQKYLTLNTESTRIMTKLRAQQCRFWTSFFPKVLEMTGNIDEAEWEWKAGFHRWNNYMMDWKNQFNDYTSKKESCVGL

SMILES	IC50 (Cholinesterase) [nM]	IC50 (Acetylcholinesterase) [nM]
CNC(=O)Oc1ccc2c(c1)[C@]1(C)CCN(C)O[C@@H]1N2C [ESERIDINE]	12	
CCc1ccccc1NC(=O)Oc1ccc2c(c1)[C@]1(C)CCN(C)O[C@@H]1N2C [GANSTIGMINE]	310	65
CC(C)c1ccc(NC(=O)Oc2ccc3c(c2)[C@]2(C)CCN(C)O[C@@H]2N3C)cc1	25	> 10000
C/C=C1\[C@H]2C=C(C)C[C@]1(N)c1ccc(=O)[nH]c1C2 [HUPERZINE A]	> 10000	
CN1c2ccc(OC(=O)Nc3ccccc3)cc2[C@]2(C)CC[N@@+](C)([O-])[C@H]12	> 10000	200
Cc1ccccc1NC(=O)Oc1ccc2c(c1)[C@]1(C)CC[N@@+](C)([O-])[C@@H]1N2C	> 10000	180
CC(C)c1ccc(NC(=O)Oc2ccc3c(c2)[C@]2(C)CC[N@@+](C)([O-])[C@@H]2N3C)cc1	5200	> 10000
CCc1ccccc1NC(=O)Oc1ccc2c(c1)[C@]1(C)CC[N@@+](C)([O-])[C@@H]1N2C	1700	125
CN1CC[C@@]2(C)c3cc(OC(=O)Nc4ccccc4)ccc3N(C)[C@H]2O1	815	130
CCCCCCCNC(=O)Oc1ccc2c(c1)[C@]1(C)CCN(C)[C@@H]1N2C [EPTASTIGMINE]	5	22
Cc1ccccc1NC(=O)Oc1ccc2c(c1)[C@]1(C)CCN(C)O[C@@H]1N2C	1570	175
CNC(=O)Oc1ccc2c(c1)[C@]1(C)CC[N@@+](C)([O-])[C@@H]1N2C	660	100
